In patent publication US20260234183A1, “SOLID STATE FORMS OF FOSGONIMETON AND SALTS THEREOF” (ASSIA CHEMICAL INDUSTRIES LTD., priority 2023, published 2026):
Entries after “also recorded” stand apart in the source; their conditions may differ. Counter-ions that a name gives are not always drawn. Square brackets hold non-standard residues; d marks the D form. Peptide text beside a SMILES is read from it. * marks the point of attachment. pY = N[C@@H](Cc1ccc(OP(=O)(O)O)cc1)C(=O)O; Hexanoyl = CCCCCC(=O)*; Ahx = NCCCCCC(=O)O

Key:
Format in all cases: physicochemical
[1] = Heating stress test, XRPD analysis; settings: 100° C./60 minutes
Experimental: (§1) Sample is applied directly on a silicon plate holder. The X-ray powder diffraction pattern was measured with Philips X′Pert PRO X-ray powder diffractometer, equipped with Cu irradiation source=1.54184 Å (Ångström), X'Celerator (2.022° 2θ) detector. Scanning parameters: angle range: 3-40 deg., step size 0.0167, time per step 37 s, continuous scan.
A sample of Fosgonimeton mono sodium salt form N2 was subjected to heating to 100° C. for 60 minutes.
A sample of Fosgonimeton mono sodium salt form N5 was subjected to heating to 100° C. for 60 minutes.
A sample of Fosgonimeton mono potassium salt form K1 was subjected to heating to 100° C. for 60 minutes.
A sample of Fosgonimeton form 1 was subjected to heating to 100° C. for 60 minutes.

[2] = Slurry experiments in solvent, XRPD analysis after filtration; settings: for XRPD after slurry experiments: various solvents, ambient temperature, 1 or 7 days
Experimental: as §1
(§2) Samples of Fosgonimeton mono sodium salt form N2 were subjected to slurry and to sauna conditions in various conditions. In the slurry experiments, 50 mg of the sample is placed in a 2 mL glass vial with 0.5 mL of solvent. Obtained suspension is stirred at ambient temperature for 1 or 7 days. XRPD analysis is performed on crystalline material after filtration. In the sauna experiments, 50 mg of crystalline material is placed in an Eppendorf tube. 0.5 mL of solvent is placed in a sealed 10 mL glass vial, along with Eppendorf tube. Crystalline material is checked by XRPD analysis after 1 or 7 days.
as §2, with “N5” for “N2”
as §2, with “potassium” for “sodium”, “K1” for “N2”
(§3) Samples of Fosgonimeton form 1 were subjected to slurry and to Sauna conditions in various conditions. In the slurry experiments, 50 mg of the sample is placed in a 2 mL glass vial with 0.5 mL of solvent. Obtained suspension is stirred at ambient temperature for 1 or 7 days. XRPD analysis is performed on crystalline material after filtration. In the sauna experiments, 50 mg of crystalline material is placed in an Eppendorf tube. 0.5 mL of solvent is placed in a sealed 10 mL glass vial, along with Eppendorf tube. Crystalline material is checked by XRPD analysis after 1 or 7 days.

[3] = Pressure stress test (Specac Hydraulic Press), XRPD analysis; settings: 2 tons/2 minutes
Experimental: as §1
A sample of Fosgonimeton mono sodium salt form N2 was subjected to a pressure of 2 ton (Specac Hydraulic Press, set to 2 tons).
A sample of Fosgonimeton mono sodium salt form N5 was subjected to a pressure of 2 ton (Specac Hydraulic Press, set to 2 tons).
A sample of Fosgonimeton mono potassium salt form K1 was subjected to a pressure of 2 tons (Specac Hydraulic Press, set to 2 tons).
A sample of Fosgonimeton form 1 was subjected to a pressure of 2 tons (Specac Hydraulic Press, set to 2 tons).

[4] = Sauna experiments (solvent vapour in sealed vial), XRPD analysis; settings: for XRPD after sauna experiments: various solvents, 1 or 7 days
Experimental: as §1, §2
as §2, with “N5” for “N2”
as §2, with “potassium” for “sodium”, “K1” for “N2”
as §3

Question: What does the source list for `CCCCCC(=O)N[C@@H](Cc1ccc(OP(=O)(O)O)cc1)C(=O)N[C@H](C(=O)NCCCCCC(N)=O)[C@@H](C)CC` [Fosgonimeton form 1, [4-[(2S)-3-[[(2S,3S)-1-[(6-amino-6-oxohexyl)amino]-3-methyl-1-oxopentan-2-yl]amino]-2-(hexanoylamino)-3-oxopropyl]phenyl]dihydrogen phosphate] (Hexanoyl-[pY]-Ile-[Ahx]-NH2)?
Answer: XRPD after Heating [1]: no polymorphic conversion; also recorded: No polymorphic change; XRPD after Slurry ([2]; 2-Propanol/20-25° C./1 day): No polymorphic change; XRPD after Slurry ([2]; Acetone/20-25° C./1 day): No polymorphic change; XRPD after Slurry ([2]; Ethanol, 96%/20-25° C./1 day): No polymorphic change; XRPD after Slurry ([2]; Ethyl acetate/20-25° C./1 day): No polymorphic change; XRPD after Pressure [3]: no polymorphic conversion; also recorded: No polymorphic change

Question: Which “XRPD after Heating” value ([1]; mono potassium salt) does the source give for `CCCCCC(=O)N[C@@H](Cc1ccc(OP(=O)(O)O)cc1)C(=O)N[C@H](C(=O)NCCCCCC(N)=O)[C@@H](C)CC` [Fosgonimeton mono potassium salt form K1, Fosgonimeton mono potassium salt] (Hexanoyl-[pY]-Ile-[Ahx]-NH2) here?
Answer: The value was “no polymorphic conversion; also recorded: No polymorphic change”.

Question: And the “XRPD after Slurry” value ([2]; 2-Propanol/20-25° C./7 days)?
Answer: The value was “No polymorphic change”.

Question: And the “XRPD after Slurry” value ([2]; Acetone/20-25° C./7 days)?
Answer: The value was “No polymorphic change”.

Question: What about the “XRPD after Slurry” value ([2]; Ethanol, 96%/20-25° C./7 days) of the same compound?
Answer: The value was “No polymorphic change”.

Question: And the “XRPD after Slurry” value ([2]; Ethyl acetate/20-25° C./7 days)?
Answer: The value was “No polymorphic change”.

Question: What about the “XRPD after slurry experiments” value [2] of the same compound?
Answer: The value was “no change in the starting material”.

Question: What about the “XRPD after Pressure” value ([3]; mono potassium salt) of the same compound?
Answer: Its value is “no polymorphic conversion; also recorded: No polymorphic change”.

Question: What about the “XRPD after Sauna” value ([4]; 2-Propanol/20-25° C./7 days) of the same compound?
Answer: The value was “No polymorphic change”.

Question: And the “XRPD after Sauna” value ([4]; Acetone/20-25° C./7 days)?
Answer: Its value is “No polymorphic change”.

Question: And the “XRPD after Sauna” value ([4]; Ethanol, 96%/20-25° C./7 days)?
Answer: Its value is “No polymorphic change”.

Question: And the “XRPD after Sauna” value ([4]; Ethyl acetate/20-25° C./7 days)?
Answer: Its value is “No polymorphic change”.

Question: What about the “XRPD after Sauna” value ([4]; Water/20-25° C./7 days) of the same compound?
Answer: The value was “No polymorphic change”.

Question: What about the “XRPD after sauna experiments” value [4] of the same compound?
Answer: The value was “no change in the starting material”.

Question: With `CCCCCC(=O)N[C@@H](Cc1ccc(OP(=O)(O)O)cc1)C(=O)N[C@H](C(=O)NCCCCCC(N)=O)[C@@H](C)CC` [Fosgonimeton mono sodium salt form N2, Fosgonimeton mono sodium salt] (Hexanoyl-[pY]-Ile-[Ahx]-NH2) as the compound, how does the “XRPD after Heating” value ([1]; mono sodium salt) read?
Answer: The value was “no polymorphic conversion; also recorded: No polymorphic change”.

Question: What about the “XRPD after Slurry” value ([2]; 2-Propanol/20-25° C./1 day) of the same compound?
Answer: Its value is “No polymorphic change”.

Question: What about the “XRPD after Slurry” value ([2]; Acetone/20-25° C./1 day) of the same compound?
Answer: The value was “No polymorphic change”.

Question: And the “XRPD after Slurry” value ([2]; Acetone/20-25° C./7 days)?
Answer: Its value is “No polymorphic change”.

Question: And the “XRPD after Slurry” value ([2]; Ethanol, 96%/20-25° C./1 day)?
Answer: Its value is “No polymorphic change”.

Question: What about the “XRPD after Slurry” value ([2]; Ethanol, 96%/20-25° C./7 days) of the same compound?
Answer: Its value is “No polymorphic change”.

Question: What about the “XRPD after Slurry” value ([2]; Ethyl acetate/20-25° C./1 day) of the same compound?
Answer: Its value is “No polymorphic change”.

Question: And the “XRPD after Slurry” value ([2]; Water/20-25° C./7 days)?
Answer: The value was “No polymorphic change”.

Question: What about the “XRPD after slurry experiments” value [2] of the same compound?
Answer: Its value is “no change in the starting material”.

Question: And the “XRPD after Pressure” value ([3]; mono sodium salt)?
Answer: The value was “no polymorphic conversion; also recorded: No polymorphic change”.

Question: What about the “XRPD after Sauna” value ([4]; 2-Propanol/20-25° C./7 days) of the same compound?
Answer: The value was “No polymorphic change”.

Question: What about the “XRPD after Sauna” value ([4]; Acetone/20-25° C./7 days) of the same compound?
Answer: Its value is “No polymorphic change”.

Question: And the “XRPD after Sauna” value ([4]; Ethanol, 96%/20-25° C./7 days)?
Answer: Its value is “No polymorphic change”.

Question: And the “XRPD after Sauna” value ([4]; Ethyl acetate/20-25° C./7 days)?
Answer: Its value is “No polymorphic change”.

Question: What about the “XRPD after Sauna” value ([4]; Water/20-25° C./7 days) of the same compound?
Answer: The value was “No polymorphic change”.

Question: What about the “XRPD after sauna experiments” value [4] of the same compound?
Answer: The value was “no change in the starting material”.

Question: Which results are given for `CCCCCC(=O)N[C@@H](Cc1ccc(OP(=O)(O)O)cc1)C(=O)N[C@H](C(=O)NCCCCCC(N)=O)[C@@H](C)CC` [Fosgonimeton mono sodium salt form N5, Fosgonimeton mono sodium salt] (Hexanoyl-[pY]-Ile-[Ahx]-NH2)?
Answer: XRPD after Heating ([1]; mono sodium salt): no polymorphic conversion; XRPD after Slurry ([2]; 2-Propanol/20-25° C./1 day): No polymorphic change; XRPD after Slurry ([2]; Acetone/20-25° C./7 days): No polymorphic change; XRPD after Slurry ([2]; Ethyl acetate/20-25° C./1 day): No polymorphic change; XRPD after slurry experiments [2]: no change in the starting material; XRPD after Pressure ([3]; mono sodium salt): no polymorphic conversion; also recorded: No polymorphic change; XRPD after Sauna ([4]; 2-Propanol/20-25° C./7 days): No polymorphic change; XRPD after Sauna ([4]; Ethanol, 96%/20-25° C./7 days): No polymorphic change; XRPD after Sauna ([4]; Ethyl acetate/20-25° C./7 days): No polymorphic change; XRPD after sauna experiments [4]: no change in the starting material
